Laboratory results published in ChEMBL document CHEMBL1142693, “Design, synthesis, and in vitro evaluation of dipeptide-based antibody minor groove binder conjugates” (J Med Chem, 2005).
pIC50: −log10 of the molar value.

Experiments:
CAKI-1 [1] = experiment: Inhibitory concentration againstHuman Caki-1 Renal CellCarcinoma Cell Lines (CD70+) at 4th hour; n=1; assay type: functional, cell-based; conditions: Homo sapiens
[2] = Inhibitory concentration againstHuman cell lung carcinoma cell line NCI-H69/LX4; n=3; assay type: functional, cell-based, Homo sapiens
CAKI-1 [3] = experiment: Inhibitory concentration againstHuman Caki-1 Renal CellCarcinoma Cell Lines (CD70+) at 96th hour; n=1; assay type: functional, cell-based; conditions: Homo sapiens
[4] = Inhibitory concentration againstHuman Karpas 299 Anaplastic Large Cell Lymphoma (CD30+) at 96th hour; n=9; assay type: functional, Homo sapiens
[5] = Inhibitory concentration againstHuman Karpas 299 Anaplastic Large Cell Lymphoma (CD30+) at 4th hour; n=1; assay type: functional, Homo sapiens
NCI-H69 = experiment: Inhibitory concentration againstHuman cell lung carcinoma cell line NCI-H69; n=3; assay type: functional, cell-based, Homo sapiens
[6] = Inhibitory concentration againstHuman Karpas 299 Anaplastic Large Cell Lymphoma (CD30+) at 96th hour; n=1; assay type: functional, Homo sapiens
[7] = Inhibitory concentration againstHuman Karpas 299 Anaplastic Large Cell Lymphoma (CD30+) at 96th hour; n=39; assay type: functional, Homo sapiens
CAKI-1 [8] = experiment: Inhibitory concentration againstHuman Caki-1 Renal CellCarcinoma Cell Lines (CD70+) at 96th hour; n=14; assay type: functional, cell-based; conditions: Homo sapiens

Compound | pIC50 (CAKI-1 [1]) | pIC50 [2] | pIC50 [5] | pIC50 (NCI-H69; Homo sapiens, NCI-H69) | pIC50 (CAKI-1 [3]) | also measured
COc1ccc(/C=C/C(=O)N2CC(CCl)c3c2cc(N)c2ccccc32)cc1 (stereo not given) | 9.23 | 8.54 | 9.47 | 9.06 | 9.17 | pIC50 [4]: 8.93
COc1cc2c(c(OC)c1OC)NC(C(=O)N1CC(CCl)c3c1cc(O)c1ncccc31)C2 (stereo not given) | 9.26 | – | 9.55 | – | 9.35 | pIC50 [6]: 9.74
COc1cccc2c1C(=O)c1c(O)c3c(c(O)c1C2=O)C[C@@](O)(C(=O)CO)C[C@@H]3O[C@H]1C[C@H](N)[C@H](O)[C@H](C)O1 [DOXORUBICIN] | – | 5.74 | – | 7.95 | – | –

The next lines start with results.

pIC50 (CAKI-1 [1]) | pIC50 [2] | pIC50 [5] | pIC50 (NCI-H69; Homo sapiens, NCI-H69) | Compound | pIC50 (CAKI-1 [3]) | also measured
– | 7.68 | – | 7.87 | COc1ccc(/C=C/C(=O)N2CC(CCl)c3c2cc(NC(=O)C(CCCCN)NC(=O)C(NC(=O)CCOCCOCCOCCOCCNC(=O)CBr)C(C)C)c2ccccc32)cc1 (stereo not given) | – | –
6.60 | – | 6.28 | – | CO[C@@]12[C@H](COC(N)=O)C3=C(C(=O)C(C)=C(N)C3=O)N1C[C@@H]1N[C@@H]12 [MITOMYCIN] | – | pIC50 [7]: 6.88; pIC50 (CAKI-1 [8]): 7.40
– | 5.55 | – | – | CISPLATIN | – | pIC50 (NCI-H69; nci-h69): 6.17
